Results published in patent publication US4668677A, “4-phenylphthalazine derivatives, their preparation and their use as pharmaceuticals” (Mitsubishi Chemical Industries Limited, priority 1984, dated 1987).
Read-outs that look alike come from different tables or passages of the source.

Key:
femoral artery = assay: Action on blood flow volume in femoral artery; assay type: in vivo, rabbit (male New Zealand White)
Description: (§1) Male New Zealand White rabbits (body weight of 2.8 Kg to 3.5 Kg) were used and anesthetized with pentobarbital sodium. Blood flow volumes in the carotid artery and femoral artery were measured and recorded via a non-blood observing type of a probe for measuring blood flow volume. Also, blood pressure in femoral artery was simultaneously measured and recorded with measurement of blood flow.
(§2) The compound of this invention was dissolved in an aqueous solution containing 1% tartaric acid and 1% dimethylacetamide, while papaverine hydrochloride dissolved in 0.9% physiological saline. These test compounds were intravenously given through a residual polyethylene tube within femoral vein.

in vivo = conditions: rat, po, rats
mice = assay: Anti-thrombotic activity: arachidonic acid-induced mortality in mice; assay type: in vivo, mouse (male ICR-JCL strain); conditions: for Survival time of dead mice: arachidonic acid 100 mg/Kg i.v.; for Mortality: arachidonic acid 100 mg/Kg i.v. after 1 hour
Description: (§3) Male ICR-JCL strain mice with an average body weight of about 25 g and male New Zealand White rabbits with an average body weight of about 3 Kg were used.
Where mice were used as experimental animals, a suspension of the test compound indicated in Table 3 in a 1% tragacanth aqueous solution was orally administered to animals at 20 ml/Kg. One hour after the administration, an arachidonic acid (PL-biochemical Co., Inc.) solution dissolved in a 0.1M sodium carbonate aqueous solution was intravenously given at 100 mg/Kg. Evaluation of activity was effected with the time from the administration of arachidonic acid up to the death of animals as well as mortality.

rabbits = assay: Anti-thrombotic activity: arachidonic acid-induced mortality in rabbits; assay type: in vivo, rabbit (male New Zealand White)
Description: as §3
Where rabbits were used as experimental animals, a suspension of the test compound in a 1% tragacanth aqueous solution was orally administered to animals at 5 ml/Kg. Two hours after the administration, an arachidonic acid solution dissolved in a 0.1M potassium carbonate solution was injected into pinna vein at 1.4 mg/Kg.
Evaluation of activity was effected with mortality at the time when arachidonic acid given. If survived at the first administration of arachidonic acid, arachidonic acid was administered after 6 hours, 24 hours, 48 hours and 72 hours from the administration of the test compound, respectively, and mortality was determined in respective cases.

blood platelets = assay: Activity to inhibit the aggregation of blood platelets (collagen, ex vivo after oral administration); assay type: in vivo, rat (male Wistar-ST strain); conditions: Rattus norvegicus, Platelet
Description: Male Wistar-ST strain rats of an average body weight of 250 g were used, a group consisting of 8 animals. The test compound indicated in the following Table 1 was orally administered to rats in the form of a suspension in a 1% tragacanth aqueous solution at 4 ml/Kg (the test compound 10 mg/Kg).
One hour after the administration, blood samples were obtained from the carotid artery by means of a cannule. […] Tubes were turned upside-down and then subjected to centrifugation at 200×g over 15 minutes to assign the supernatant as a platelet-rich plasma (PRP). The residue was further centrifuged at […] over 15 minutes to assign the supernatant as a platelet-poor plasma (PPP). These supernatants were applied for determining the ability to aggregate blood platelets. […] As an aggregation inducing agent, collagen (availale from Hormon-chemie A.G.) was used at a concentration of 7 to 10 μg/ml.
Inhibitory rate to aggregate blood platelets was calculated according to the following equation: [formula] A: […] in the group to which the 1% tragacanth solution alone was given (Control)
B: Aggregation rate in the group to which the tragacanth solution of the test compound was given.

carotid artery = assay: Action on blood flow volume in carotid artery; assay type: in vivo, rabbit (male New Zealand White)
Description: as §1, §2

[1] = tested on: PGI2-like substance in vessel walls; assay: Influence on production of PGI2-like substance in vessel walls (ADP aggregation with carotid artery ring); assay type: in vivo, rat (male Wistar-ST strain); conditions: 1 hour, 10 μM ADP
Description: Male Wistar-ST strain rats with an average weight of about 250 g were used as experimental animals. After fasted for 18 hours, 6.3 ml of blood sample were obtained from corotid artery and immediately thereafter 0.7 ml of an anticoagulant (3.8% sodium citrate) was added and the sample was centrifuged at 200×g over 15 minutes to take platelet-rich plasma (PRP). The same procedures as above were carried out, using 5 to 6 rats, whereby 5-6 ml as normal PRP were stored and employed.
Reference aggregation values were determined by pouring 1 ml each of stored PRP into plastic test tubes, incubating them at 22° C. for 10 minutes and then determining aggregation rate. As an aggregation inducing agent, one employed 10 μM ADP (available from Sigma Co., Inc.)
A suspension of the compound of this invention or aspirin in a 1% aqueous solution of tragacanth was orally given to animals. After 1 hour, 5 mg of carotid artery were cut out in a ring shape and placed into a plastic test tube together with 1 ml of stored PRP. After incubated at 22° C. for 10 minutes, aggregation rate was determined.
Also, non-medicated groups were similarly treated and aggregation rate was determined.
Determination of blood platelet aggregation rate was made by means of an aggregometer.

CC(C)(C)CNc1nnc(-c2ccccc2)c2ccccc12 [Compound 1, 1-neopentylamino-4-phenylphthalazine]
Blood flow volume in femoral artery, A: Before administration (femoral artery; 0.01 mg/Kg i.v.): 19.0 mL/min | Blood flow volume in femoral artery, B: After administration (femoral artery; 0.01 mg/Kg i.v.): 22.1 mL/min | Blood flow volume in femoral artery, C: Increase degree (femoral artery; 0.01 mg/kg i.v.): 3.1 mL/min | Blood flow volume in femoral artery, D: Increase rate (femoral artery; 0.01 mg/kg i.v.): 9.9% | Blood flow volume in femoral artery, A: Before administration (femoral artery; 0.05 mg/Kg i.v.): 18.5 mL/min | Blood flow volume in femoral artery, B: After administration (femoral artery; 0.05 mg/Kg i.v.): 24.3 mL/min | Blood flow volume in femoral artery, C: Increase degree (femoral artery; 0.05 mg/kg i.v.): 5.8 mL/min | Blood flow volume in femoral artery, D: Increase rate (femoral artery; 0.05 mg/kg i.v.): 28.2% | Blood flow volume in femoral artery, A: Before administration (femoral artery; 0.1 mg/Kg i.v.): 18.5 mL/min | Blood flow volume in femoral artery, B: After administration (femoral artery; 0.1 mg/Kg i.v.): 27.8 mL/min | Blood flow volume in femoral artery, C: Increase degree (femoral artery; 0.1 mg/kg i.v.): 9.3 mL/min | Blood flow volume in femoral artery, D: Increase rate (femoral artery; 0.1 mg/kg i.v.): 65.2% | Blood flow volume in femoral artery, A: Before administration (femoral artery; 0.5 mg/Kg i.v.): 19.5 mL/min | Blood flow volume in femoral artery, B: After administration (femoral artery; 0.5 mg/Kg i.v.): 28.2 mL/min | Blood flow volume in femoral artery, C: Increase degree (femoral artery; 0.5 mg/kg i.v.): 8.7 mL/min | Blood flow volume in femoral artery, D: Increase rate (femoral artery; 0.5 mg/kg i.v.): 55.3% | LD50 (in vivo): > 8000 mg/kg | Survival time of dead mice (mice; 30 mg/Kg oral): 101 ± 11 s | Mortality (mice; 30 mg/Kg oral): 75% | Survival time of dead mice (mice; 100 mg/Kg oral): 108 ± 11 s | Mortality (mice; 100 mg/Kg oral): 75% | Mortality (mice; 300 mg/Kg oral): 0% | Mortality (number of rabbits) (rabbits; 10 mg/Kg oral, 2 hrs. after administration, of 4 rabbits): 1 | Mortality (number of rabbits) (rabbits; 10 mg/Kg oral, 6 hrs. after administration, of 4 rabbits): 2 | Mortality (number of rabbits) (rabbits; 10 mg/Kg oral, 24 hrs. after administration, of 4 rabbits): 1 | Mortality (number of rabbits) (rabbits; 30 mg/Kg oral, 24 hrs. after administration, of 8 (Compound 1) or 4 rabbits): 3 | Mortality (number of rabbits) (rabbits; 30 mg/Kg oral, 48 hrs. after administration, of 8 (Compound 1) or 4 rabbits): 1 | Mortality (number of rabbits) (rabbits; 30 mg/Kg oral, 72 hrs. after administration, of 8 rabbits): 4 | inhibition at 3 mg/kg (blood platelets; 3 mg/Kg oral (Table 5), read-out: Inhibitory rate of blood platelet aggregation): 48.1% | inhibition at 10 mg/kg (blood platelets; 10 mg/Kg oral (Table 5), read-out: Inhibitory rate of blood platelet aggregation): 100% | inhibition at 10 mg/kg (blood platelets; 10 mg/Kg oral, 1 hour after administration, collagen 7 to 10 μg/ml, read-out: Inhibitory rate (blood platelet aggregation)): 100% | inhibition at 30 mg/kg (blood platelets; 30 mg/Kg oral (Table 5), read-out: Inhibitory rate of blood platelet aggregation): 100% | Blood flow volume in carotid artery, A: Before administration (carotid artery; 0.01 mg/Kg i.v.): 15.5 mL/min | Blood flow volume in carotid artery, B: After administration (carotid artery; 0.01 mg/Kg i.v.): 21.9 mL/min | Blood flow volume in carotid artery, C: Increase degree (carotid artery; 0.01 mg/Kg i.v.): 6.3 mL/min | Blood flow volume in carotid artery, D: Increase rate (carotid artery; 0.01 mg/Kg i.v.): 40.8% | Blood flow volume in carotid artery, A: Before administration (carotid artery; 0.05 mg/Kg i.v.): 14.5 mL/min | Blood flow volume in carotid artery, B: After administration (carotid artery; 0.05 mg/Kg i.v.): 22.7 mL/min | Blood flow volume in carotid artery, C: Increase degree (carotid artery; 0.05 mg/Kg i.v.): 8.1 mL/min | Blood flow volume in carotid artery, D: Increase rate (carotid artery; 0.05 mg/Kg i.v.): 53.7% | Blood flow volume in carotid artery, A: Before administration (carotid artery; 0.1 mg/Kg i.v.): 15.4 mL/min | Blood flow volume in carotid artery, B: After administration (carotid artery; 0.1 mg/Kg i.v.): 26.9 mL/min | Blood flow volume in carotid artery, C: Increase degree (carotid artery; 0.1 mg/Kg i.v.): 11.5 mL/min | Blood flow volume in carotid artery, D: Increase rate (carotid artery; 0.1 mg/Kg i.v.): 74.2% | Blood flow volume in carotid artery, A: Before administration (carotid artery; 0.5 mg/Kg i.v.): 17.3 mL/min | Blood flow volume in carotid artery, B: After administration (carotid artery; 0.5 mg/Kg i.v.): 35.1 mL/min | Blood flow volume in carotid artery, C: Increase degree (carotid artery; 0.5 mg/Kg i.v.): 17.8 mL/min | Blood flow volume in carotid artery, D: Increase rate (carotid artery; 0.5 mg/Kg i.v.): 109.7% | Aggregation rate with ADP when carotid artery ring added ([1]; 3 mg/Kg oral): 2.7% | Aggregation rate with ADP when carotid artery ring added ([1]; 10 mg/Kg oral): 17.7% | Aggregation rate with ADP when carotid artery ring added ([1]; 30 mg/Kg oral): 10.0%
